Experimental data as given in paper PMC7320160, “In planta study of photosynthesis and photorespiration using NADPH and NADH/NAD^+ fluorescent protein sensors” (Nature Communications, 2020).

Target: T1, iNAP1
T1 construct: gene rex; 6xHis N-terminal, E. coli BL21(DE3) pLys
Test: sensor fluorescence titration, excitation […] nm, emission […] nm
Type: binding
Conditions: 22 °C, in vitro, pseudocytosol medium pH 7.5, 0.5 μM sensor

Kd: 300 nM
Structure (SMILES): NC(=O)C1=CN([C@@H]2O[C@H](COP(=O)(O)OP(=O)(O)OC[C@H]3O[C@@H](n4cnc5c(N)ncnc54)[C@H](OP(=O)(O)O)[C@@H]3O)[C@@H](O)[C@H]2O)C=CC1 [NADPH]
